Laboratory results from patent US8252814B2, “Agents and crystals for improving excretory potency of urinary bladder” (priority 1998, dated 2012).
Like-named read-outs stand apart in the source and are kept apart here. Marks after values point to notes of the source that are not given here.

Experiments:
guinea pigs [1] = experiment: Effect on the flow rate of urine in guinea pigs, single or combined use, Experimental Example 4; type: in vivo, Hartley male guinea pigs; settings: guinea pig; for Improvement (%): 10 minutes after administration
Description: Effect on the flow rate of urine by single or combined use of Compounds of Reference Examples, distigmine, prazosin, and tamsulosin was examined using Hartley male guinea pigs. Four to six Hartley male guinea pigs weighing about 350 g (SLC) were employed in each treated group. Guinea pigs were anesthetized with urethane, and held, and the bladder was exposed. Two polyethylene tubes (PE-100) were inserted into the bladder. One of the tubes was used in infusion of physiological saline, and the other used for measurement of the internal pressure of the bladder. Saline was infused continuously at a flow rate of 0.3 mL/min. The infusion was stopped at the time when intermittent urination was confirmed at least 3 times, and the whole saline in bladder was removed. Again, infusion was started, and stopped at the time when a rise of the pressure in bladder was confirmed immediately before urination. Excreted urine was weighed on an electronic force balance (HX-400, A&D). Analogue data of the internal pressure of the bladder and urine weight were input in an AD converter (MP-30, Biopac Systems) and the digital signal was analyzed by means of purpose-made software (Student lab pro 2.1.5, Biopac Systems). Sampling interval of the date was fixed at 0.1 second, and the value of urine weight was differentiated to determine the flow rate of urine. In order to remove data noise of the excretion volume and flow rate of urine, the data was adapted to a lowcut filter at 0.5 Hz.
Measurement was made 2 times before administration of the test compound, and then the test compound was administered intravenously. Again, measurement was made 10 minutes after administration of the test compound.
The average measured value before administration of the test compounds was regarded as the value before administration, and the rate of change of the values from the ante-administration to the post-administration was calculated to compare between the groups by means of the Dunnet's test.

[2] = biological target: T1, acetylcholinesterase of human erythrocyte origin (Homo sapiens, UniProt P22303); experiment: Measurement of acetylcholinesterase-inhibiting action (acetylthiocholine / Ellman method), Experimental Example 1; type: biochemical; settings: at least 3 experiments
T1 construct: Acetylcholinesterase of human erythrocyte origin (Sigma Chemical Co.); purchased Sigma Chemical Co; host or cells: human erythrocytes (natural source)
T1 sequence (P22303 32-617 isoform P22303-2 limits assumed): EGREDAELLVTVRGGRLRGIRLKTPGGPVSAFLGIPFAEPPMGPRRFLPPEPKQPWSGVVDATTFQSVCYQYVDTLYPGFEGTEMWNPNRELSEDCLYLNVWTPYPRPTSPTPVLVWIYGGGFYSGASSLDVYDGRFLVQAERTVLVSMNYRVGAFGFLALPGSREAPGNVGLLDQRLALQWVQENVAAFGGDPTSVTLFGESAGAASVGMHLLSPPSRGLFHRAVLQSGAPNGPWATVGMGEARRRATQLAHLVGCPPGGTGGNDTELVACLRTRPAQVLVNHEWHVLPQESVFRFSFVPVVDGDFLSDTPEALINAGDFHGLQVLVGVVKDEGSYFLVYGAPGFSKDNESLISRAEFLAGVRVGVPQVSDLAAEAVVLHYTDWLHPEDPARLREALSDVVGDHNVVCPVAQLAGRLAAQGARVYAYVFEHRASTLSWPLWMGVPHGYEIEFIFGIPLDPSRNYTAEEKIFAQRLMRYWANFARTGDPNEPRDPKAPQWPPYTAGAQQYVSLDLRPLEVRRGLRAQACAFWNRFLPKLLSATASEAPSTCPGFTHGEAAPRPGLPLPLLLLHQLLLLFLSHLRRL
Protocol: Acetylcholinesterase-inhibiting action of the compounds disclosed in Reference Examples was measured using acetylcholinesterase of human erythrocyte origin according to the acetylthiocholine method (Ellman method).
Acetylcholinesterase of human erythrocyte origin (Sigma Chemical Co.) was dissolved in distilled water at a concentration of 0.2 IU/mL to give an enzyme authentic sample. To a 96-well microplate was dispensed 20 μL of drug solution, 30 μL of 80 mM Tris-HCl (pH 7.4), 50 μL of enzyme authentic sample and 50 μL of 5 mM 5,5-dithio-bis(2-nitrobenzoic acid) (Sigma Chemical Co.), and the plate was shaken for 10 seconds. Then, 50 μL of acetylthiocholine iodide (Sigma Chemical Co.) was added, and the plate was again shaken. Immediately after shaking, increase of extinction at […] was measured at intervals of 30 seconds for 10 minutes. The enzyme activity was determined according to the following equation.
The experiment was repeated at least 3 times for each compound to obtain 50% inhibitory concentration (IC50). Moreover, in the same manner as mentioned above, acetylcholinesterase-inhibiting activity of distigmine was measured.

urinary bladder = experiment: Potentiation effect for rhythmic contraction of urinary bladder in guinea pig, Experimental Example 2; type: in vivo, Hartley male guinea pigs; settings: Cavia porcellus, iv, read-out: AUC200 (mg/kg, i.v.)
Protocol: Potentiation effect of the compounds disclosed in Reference Examples for rhythmic contraction of urinary bladder was examined using Hartley male guinea pigs. Hartley male guinea pigs (SLC) weighing about 300 g were anesthetized with urethane (1.2 g/kg, i.p.), held, and incised at the midline of abdomen to expose the bladder. The urethra was ligated, and a polyethylene tube (PE-50) was inserted into the bladder. The internal pressure of the bladder was measured with a blood pressure amplifier (Nippon Koden), and the data was collected on a personal computer through an A/D converter (MP-30, Biopac Systems). A proper amount of physiological saline was injected into the bladder through a cannula to induce rhythmic contraction of the to bladder.
The area (AUC) that is formed by a curve of the internal pressure of the bladder and a base line was calculated through analytical software (Studentlab pro 2.1.5, Biopac Systems) to evaluate the effect of the test compounds. The curve of the internal pressure is made based on the bladder contraction immediately before administration of the test compound and the first contraction 5 minutes after the administration. From the dose-dependent curve of AUC, the dose at which AUC before drug administration was increased 2 times (AUC200) was calculated to determine potency of contraction-enhancing effect of the test compounds for the muscle of urinary bladder. In addition, the potency of contraction-enhancing effect of […] for the muscle of bladder was determined in the same manner as mentioned above.

guinea pigs [3] = experiment: Effect on urination efficiency in guinea pigs, Experimental Example 3; type: in vivo, Hartley male guinea pigs; settings: guinea pig; for Efficiency of Urination (%) Before adm.: before administration; for Efficiency of Urination (%) After adm. / Improvement of Efficiency (%): 10 minutes after administration
Description: Effect of the compounds of Reference Examples on urination efficiency was examined using Hartley male guinea pigs. Six to ten Hartley male guinea pigs weighing 346.5±3.5 g (SLC) were employed in each treated group. Guinea pigs were anesthetized with urethane, and held, and the bladder was exposed. Two polyethylene tubes (PE-50 and PE-100) were inserted into the bladder. One (PE-50) of the tubes was used in infusion of physiological saline, and the other (PE-100) was used for measurement of the internal pressure of the bladder. Saline was infused continuously at a flow rate of 0.3 mL/min. The infusion was stopped at the time when intermittent urination was confirmed at least 3 times, and the whole saline in bladder was removed. Again, infusion was started, and stopped at the time when a rise of the pressure in bladder was confirmed immediately before urination, and the time required for infusion and the weight of excreted urine were measured. Efficiency of urination was calculated from the following equation. Efficiency of urination (%)=100×Excreted volume (mL)/Infusion time (min)×0.3 (mL/min)
Measurement was made at least 2 times before administration of the test compound, and then the test compound was dissolved in distilled water and administered intravenously. […] Effect by administration of solvents was also confirmed.
The average measured value before administration of the test compounds was regarded as the value before administration, and applied to the paired-t test for a significant difference test with the value after the administration. (** p<0.01, * p<0.05)

[4] = urethane-anesthetized guinea pig, dose at which AUC of bladder internal pressure before drug administration was increased 2 times

COc1cc2nc(N3CCN(C(=O)c4ccco4)CC3)nc(N)c2cc1OC [Prazosin]
Flow Rate (mL/sec) Ante-admn. (guinea pigs [1]; prazosin 0.1 mg/kg i.v. group, before administration (Table 8)): 0.18 ± 0.03 mL/s
Flow Rate (mL/sec) Post-admn. (guinea pigs [1]; prazosin 0.1 mg/kg i.v., 10 minutes after administration (Table 8)): 0.17 ± 0.02 mL/s
Improvement (%) (guinea pigs [1]; prazosin 0.1 mg/kg i.v., control DMSO (Table 8)): 0.97 ± 10.32%

N#Cc1cccc(CN2CCC(CCC(=O)c3cc4c5c(c3)CCN5C(=O)CC4)CC2)c1 [Reference Example 1]
IC50 [2]: 13.6 nM
ED (2-fold bladder contraction AUC) (urinary bladder; [4]): 0.005 mg/kg

O=C(CCC1CCN(Cc2cccc(F)c2)CC1)c1cc2c3c(c1)CCN3C(=O)CC2 [Reference Example 15, 8-[3-[1-[(3-fluorophenyl)methyl]-4-piperidinyl]-1-oxopropyl]-1,2,5,6-tetrahydro-4H-pyrrolo[3,2,1-ij]quinolin-4-one]
IC50 [2]: 4.4 nM
ED (2-fold bladder contraction AUC) (urinary bladder; [4]): 0.0013 mg/kg
Efficiency of Urination (%) Before adm. (guinea pigs [3]; 0.003 mg/kg i.v. group): 71.5 ± 7.9%
Efficiency of Urination (%) After adm. (guinea pigs [3]; 0.003 mg/kg i.v.): 79.6 ± 6.4%
Improvement of Efficiency (%) (guinea pigs [3]; 0.003 mg/kg i.v.): 16.2%
Efficiency of Urination (%) Before adm. (guinea pigs [3]; 0.01 mg/kg i.v. group): 60.0 ± 7.7%
Efficiency of Urination (%) After adm. (guinea pigs [3]; 0.01 mg/kg i.v.): 93.9 ± 3.0%
Improvement of Efficiency (%) (guinea pigs [3]; 0.01 mg/kg i.v.): 77.0** %
Efficiency of Urination (%) Before adm. (guinea pigs [3]; 0.03 mg/kg i.v. group): 65.5 ± 9.0%
Efficiency of Urination (%) After adm. (guinea pigs [3]; 0.03 mg/kg i.v.): 88.9 ± 3.1%
Improvement of Efficiency (%) (guinea pigs [3]; 0.03 mg/kg i.v.): 66.2* %
Flow Rate (mL/sec) Ante-admn. (guinea pigs [1]; Ref. Ex. 15 0.001 mg/kg i.v. group, before administration (Table 9)): 0.17 ± 0.03 mL/s
Flow Rate (mL/sec) Post-admn. (guinea pigs [1]; Ref. Ex. 15 0.001 mg/kg i.v., 10 minutes after administration (Table 9)): 0.15 ± 0.02 mL/s
Improvement (%) (guinea pigs [1]; Ref. Ex. 15 0.001 mg/kg i.v., control distilled water (Table 9)): −6.5 ± 12.1%
Flow Rate (mL/sec) Ante-admn. (guinea pigs [1]; Ref. Ex. 15 0.01 mg/kg i.v. group, before administration (Table 8)): 0.27 ± 0.03 mL/s
Flow Rate (mL/sec) Post-admn. (guinea pigs [1]; Ref. Ex. 15 0.01 mg/kg i.v., 10 minutes after administration (Table 8)): 0.29 ± 0.05 mL/s
Improvement (%) (guinea pigs [1]; Ref. Ex. 15 0.01 mg/kg i.v., control DMSO (Table 8)): 6.81 ± 7.84%

O=C(CCC1CCN(Cc2ccccc2)CC1)c1cc2c3c(c1)CCN3C(=O)CC2 [Reference Example 17, 8-[3-[1-(phenylmethyl)-4-piperidinyl]-1-oxopropyl]-1,2,5,6-tetrahydro-4H-pyrrolo[3,2,1-ij]quinolin-4-one]
IC50 [2]: 7.8 nM
ED (2-fold bladder contraction AUC) (urinary bladder): 0.0034 mg/kg

CCOc1ccccc1OCCN[C@H](C)Cc1ccc(OC)c(S(N)(=O)=O)c1 [Tamsulosin]
Flow Rate (mL/sec) Ante-admn. (guinea pigs [1]; tamsulosin 0.1 mg/kg i.v. group, before administration (Table 9)): 0.16 ± 0.01 mL/s
Flow Rate (mL/sec) Post-admn. (guinea pigs [1]; tamsulosin 0.1 mg/kg i.v., 10 minutes after administration (Table 9)): 0.14 ± 0.02 mL/s
Improvement (%) (guinea pigs [1]; tamsulosin 0.1 mg/kg i.v., control distilled water (Table 9)): −11.8 ± 4.8%

O=C(CCC1CCN(Cc2cccc(Cl)c2)CC1)c1cc2c3c(c1)CCN3C(=O)CC2 [compound 4]
IC50 [2]: 10.9 nM
ED (2-fold bladder contraction AUC) (urinary bladder; [4]): 0.005 mg/kg

Cc1cccc(CN2CCC(CCC(=O)c3cc4c5c(c3)CCN5C(=O)CC4)CC2)c1 [compound 6]
IC50 [2]: 18.9 nM
ED (2-fold bladder contraction AUC) (urinary bladder; [4]): 0.0049 mg/kg

Cc1ccccc1CN1CCC(CCC(=O)c2cc3c4c(c2)CCN4C(=O)CC3)CC1 [compound 7]
IC50 [2]: 22.1 nM
ED (2-fold bladder contraction AUC) (urinary bladder; [4]): 0.0055 mg/kg

O=C(CCC1CCN(Cc2cccc([N+](=O)[O-])c2)CC1)c1cc2c3c(c1)CCN3C(=O)CC2 [compound 12]
IC50 [2]: 8.1 nM
ED (2-fold bladder contraction AUC) (urinary bladder; [4]): 0.006 mg/kg

O=C(CCC1CCN(Cc2ccccc2O)CC1)c1cc2c3c(c1)CCN3C(=O)CC2 [compound 13]
IC50 [2]: 5.2 nM
ED (2-fold bladder contraction AUC) (urinary bladder; [4]): 0.0013 mg/kg

O=C(CCC1CCN(Cc2ccccc2Cl)CC1)c1cc2c3c(c1)CCN3C(=O)CC2 [compound 14]
IC50 [2]: 9.9 nM
ED (2-fold bladder contraction AUC) (urinary bladder; [4]): 0.0016 mg/kg

O=C(CCC1CCN(Cc2ccccc2)CC1)c1cc2c3c(c1)CC(=O)N3CCC2 [compound 18]
IC50 [2]: 10.9 nM
ED (2-fold bladder contraction AUC) (urinary bladder): 0.0051 mg/kg

Nc1c2c(nc3ccccc13)CCCC2 [compound 30]
Efficiency of Urination (%) Before adm. (guinea pigs [3]; 0.3 mg/kg i.v. group (Ref. Ex. 30)): 62.2 ± 5.1%
Efficiency of Urination (%) After adm. (guinea pigs [3]; 0.3 mg/kg i.v.): 74.5 ± 5.1%
Improvement of Efficiency (%) (guinea pigs [3]; 0.3 mg/kg i.v.): 22.0** %
Efficiency of Urination (%) Before adm. (guinea pigs [3]; 1.0 mg/kg i.v. group (Ref. Ex. 30)): 62.8 ± 7.8%
Efficiency of Urination (%) After adm. (guinea pigs [3]; 1.0 mg/kg i.v.): 84.9 ± 4.8%
Improvement of Efficiency (%) (guinea pigs [3]; 1.0 mg/kg i.v.): 55.4* %
Efficiency of Urination (%) Before adm. (guinea pigs [3]; 3.0 mg/kg i.v. group (Ref. Ex. 30)): 65.8 ± 8.9%
Efficiency of Urination (%) After adm. (guinea pigs [3]; 3.0 mg/kg i.v.): 89.0 ± 2.7%
Improvement of Efficiency (%) (guinea pigs [3]; 3.0 mg/kg i.v.): 64.2* %
